Laboratory results published in publication PMC6234764, “First Insights Into Within Host Translocation of the Bacillus cereus Toxin Cereulide Using a Porcine Model” (Frontiers in Microbiology, 2018).
Like-named read-outs stand apart in the source and are kept apart here.

Legend:
[1] = Cereulide in organs and tissues, SIDA-MS; assay type: in vivo, pig; conditions: for tissue level at time at 168 h / tissue level at time at 48 h: pig; for tissue level at time at 168 h: 10 ug/kg, daily oral dose 10 μg kg^-1 for 7 days
Experimental: A total of four experiments, each including four treated animals and one control pig, was performed to investigate the action of cereulide on piglets after oral intake of cereulide. Pigs were either challenged orally with a single dose (acute trials) or with daily over a period of 7 days (chronic trial) (see Table 1). One hour before cereulide toxin administration blood samples were taken by puncturing the anterior Vena cava and piglets were weighed for calculation of the cereulide concentration (t = 0 h). In the intoxication experiment with 150 μg kg^-1 blood samples were taken 68 h before the experiment to reduce the distress for the animals at the start day of the experiments. Blood-chemical, immunological, and histological analyses of selected organs as well as quantification of cereulide in organs, tissues, urine and feces were carried out as detailed below.
On body weight calculated amounts of cereulide, dissolved in ethanol, were mixed with milk (UHT milk; 3.5% fat), and fed to four piglets. Control piglets were fed with milk supplemented with similar ethanol concentrations as the experimental piglets. The experiment started after the uptake of the whole milk cereulide mixture. The milk was checked for bacterial contamination prior to the experiment.
After oral administration of cereulide, piglets were monitored for unusual behavior and examined physically with special respect on rectal body temperature as well as pulse and respiration rate, every 2–3 h. Blood samples were taken from the Vena cava cranialis. Urine and feces were collected during the whole experiment and stored at -80°C. After the experiment pigs were anaesthetized by intramuscular injection of a bolus of ketamine (10 mg kg^-1) and azaperone (1.3 mg kg^-1). When sedation was deep enough cerebrospinal fluid (liquor) was taken by lumbar puncture. Finally, pigs were euthanized by intracardial injection of T61®. Animals were then necropsied and parts of the following organs, tissues or body fluids were taken for SIDA-MS analysis: liver, lung, heart, kidney, brain, spleen, small and large intestine, lymph nodes, gastric as well as intestinal contents, skeletal muscle, and abdominal and subcutaneous fat. Samples of liver, lung, heart, kidney, brain, spleen, small, and large intestine were collected for histological analysis.
Collected blood samples, urine, feces, tissue and organs were freeze dried and stored at -80°C until analysis. Before extraction, liquid nitrogen was added to frozen samples and they were crushed to a powder using a mortar. Ten microgram ^13C6-cereulide (for organs and feces) or 5 μg ^13C6-cereulide (for urine and blood) was added and samples were incubated on a rocking table for 2 h. Samples were solved in ethanol (volume depending on weight 10–40 mL), incubated 14 h, and the supernatants were collected by centrifugation (RT, 8500 g, 10 min). For pre-purification the ethanolic extract was 1:5 diluted with water and applied onto the top of a methanol activated C18-SPE cartridge (6 mL; 1 g; Strata C18-E; Phenomenex, Aschaffenburg, Germany). The cartridge was washed with 6 mL water followed by methanol/water (4 mL; 70/30, v/v) and target compounds were eluted with ethanol (2.5 mL). Finally, samples were membrane filtrated (0.2 μm; PTFE membrane; Phenomenex, Aschaffenburg, Germany) and analyzed by means of LC-MS/MS as described previously ([Bauer et al., 2010]). In brief, LC-MS/MS analysis was performed using an Agilent 1200 HPLC-system connected to the API 4000QTrap LC-MS/MS (Applied Biosystems, Darmstadt, Germany) running in the positive electrospray ionization (ESI^+, +5500 V) mode. Zero grade air served as nebulizer gas (45 psi) and turbo gas (425°C) for solvent drying (55 psi), nitrogen was used as curtain (20 psi) and collision gas (8.7 × 10^-7 psi), respectively. Both quadrapoles were set at unit resolution. […]

[2] = test system: Min6 cells and whole mouse pancreatic islets; conditions: ref Vangoitsenhoven et al., 2014; cited from earlier work
Experimental: Low concentrations of cereulide can cause dysfunction in beta-cell lines ([Vangoitsenhoven et al., 2014]) and have been reported to be detrimental toward isolated porcine pancreatic Langerhans islets ([Virtanen et al., 2008]). Using Min6 cells and whole mouse pancreatic islets as model, it could be shown that low concentrations of cereulide (0.25–0.5 ng/mL) are directly effecting the insulin secretory machinery ([Vangoitsenhoven et al., 2014]). Based on their in vitro findings the authors hypothesized that cereulide may contribute to the rise of prevalence of diabetes observed worldwide, as a ...

[3] = single oral dose 30 μg kg^-1, necropsy after 48 h, SIDA-MS
[4] = single oral dose 150 μg kg^-1, necropsy after 48 h, SIDA-MS

CC(C)C[C@H]1OC(=O)[C@H](C(C)C)NC(=O)[C@H](C(C)C)OC(=O)[C@@H](C)NC(=O)[C@@H](CC(C)C)OC(=O)[C@H](C(C)C)NC(=O)[C@H](C(C)C)OC(=O)[C@@H](C)NC(=O)[C@@H](CC(C)C)OC(=O)[C@H](C(C)C)NC(=O)[C@H](C(C)C)OC(=O)[C@@H](C)NC1=O [cereulide]
tissue level at time at 168 h ([1]; large intestine, SIDA-MS, read-out: Cereulide concentration in large intestine, average): 3.11 ± 1.95 ng/g
tissue level at time at 48 h ([1]; large intestine, 30 ug/kg, single oral dose 30 μg kg^-1, necropsy after 48 h, SIDA-MS, read-out: Cereulide concentration in large intestine, average): 0.07 ± 0.06 ng/g
tissue level at time at 48 h ([1]; large intestine, 150 ug/kg, single oral dose 150 μg kg^-1, necropsy after 48 h, SIDA-MS, read-out: Cereulide concentration in large intestine, average): 30.5 ± 14.3 ng/g
tissue level at time at 168 h ([1]; liver, SIDA-MS, read-out: Cereulide concentration in liver, average): 0.14 ± 0.08 ng/g
tissue level at time at 48 h ([1]; liver, 150 ug/kg, single oral dose 150 μg kg^-1, necropsy after 48 h, SIDA-MS, read-out: Cereulide concentration in liver, average): 0.37 ± 0.07 ng/g
tissue level at time at 168 h ([1]; lymph nodes, SIDA-MS, read-out: Cereulide concentration in lymph nodes, average): 0.07 ± 0.07 ng/g
tissue level at time at 48 h ([1]; lymph nodes, 150 ug/kg, single oral dose 150 μg kg^-1, necropsy after 48 h, SIDA-MS, read-out: Cereulide concentration in lymph nodes, average): 2.82 ± 1.71 ng/g
tissue level at time at 168 h ([1]; muscle, SIDA-MS, read-out: Cereulide concentration in muscle, average): 1.12 ± 1.12 ng/g
tissue level at time at 48 h ([1]; muscle, 150 ug/kg, single oral dose 150 μg kg^-1, necropsy after 48 h, SIDA-MS, read-out: Cereulide concentration in muscle, average): 0.39 ± 0.32 ng/g
tissue level at time at 48 h ([1]; small intestine, 150 ug/kg, single oral dose 150 μg kg^-1, necropsy after 48 h, SIDA-MS, read-out: Cereulide concentration in small intestine, average): 1.34 ± 0.88 ng/g
tissue level at time at 168 h ([1]; spleen, SIDA-MS, read-out: Cereulide concentration in spleen, average): 0.15 ± 0.06 ng/g
tissue level at time at 48 h ([1]; spleen, 150 ug/kg, single oral dose 150 μg kg^-1, necropsy after 48 h, SIDA-MS, read-out: Cereulide concentration in spleen, average): 2.26 ± 1.75 ng/g
tissue level at time at 48 h ([1]; stomach, 150 ug/kg, single oral dose 150 μg kg^-1, necropsy after 48 h, SIDA-MS, read-out: Cereulide concentration in stomach, average): 2 ± 3.2 ng/g
tissue level at time at 168 h ([1]; subcutaneous fat, SIDA-MS, read-out: Cereulide concentration in subcutaneous fat, average): 0.04 ± 0.04 ng/g
tissue level at time at 48 h ([1]; subcutaneous fat, 150 ug/kg, single oral dose 150 μg kg^-1, necropsy after 48 h, SIDA-MS, read-out: Cereulide concentration in subcutaneous fat, average): 0.74 ± 0.51 ng/g
Cereulide concentration in content of large intestine, range [1, 3]: 0 to 0.09 ng/g
Cereulide concentration in large intestine, range [1, 3]: 0 to 0.13 ng/g
Cereulide in content of the large intestine, maximum ([1]; single oral dose 150 μg kg^-1): up to 140 ng g^-1
Cereulide in content of the small intestine, maximum ([1]; single oral dose 150 μg kg^-1): ≤ 1 ng/g
Cereulide in the brain, animal with highest blood concentration ([1]; single oral dose 150 μg kg^-1): 1.4 ng cereulide g^-1
Cereulide in fat tissue, one animal ([1]; single oral dose 150 μg kg^-1, animal with highest blood concentration): 2 ng cereulide g^-1 fat tissue
Cereulide concentration in abdominal fat, range [1, 4]: 2.17 to 12.02 ng/g
Cereulide concentration in brain, range [1, 4]: 0.15 to 1.41 ng/g
Cereulide concentration in content of large intestine, range [1, 4]: 5.84 to 140.99 ng/g
Cereulide concentration in content of small intestine, range [1, 4]: 0 to 1.06 ng/g
Cereulide concentration in kidney, range [1, 4]: 0 to 0.43 ng/g
Cereulide concentration in large intestine, range [1, 4]: 7.14 to 45.75 ng/g
Cereulide concentration in liver, range [1, 4]: 0.25 to 0.41 ng/g
Cereulide concentration in lymph nodes, range [1, 4]: 0 to 4.50 ng/g
Cereulide concentration in muscle, range [1, 4]: 0 to 0.76 ng/g
Cereulide concentration in small intestine, range [1, 4]: 0.34 to 2.49 ng/g
Cereulide concentration in spleen, range [1, 4]: 1.15 to 5.29 ng/g
Cereulide concentration in stomach, range [1, 4]: 0.11 to 7.54 ng/g
Cereulide concentration in subcutaneous fat, range [1, 4]: 0.35 to 1.37 ng/g
Cereulide in fat tissues, maximum ([1]; single oral dose 150 μg kg^-1, two out of four animals): up to 12 ng cereulide g^-1
Low concentrations directly effecting the insulin secretory machinery [2]: 0.25 to 0.5 ng/mL
